Test results as given in US20060167109A1, “Methods of reducing rhinovirus contagion and related compositions” (priority 2002, published 2006).
Values joined by “and” are separate entries in the source; they are usually repeats but may differ in a detail not shown here. Equal values may be shown once.

Assays:
HRV3 = assay: Uncoating inhibition; format: cell-based, human rhinovirus; conditions: 2 μM, 2 hours at 33° C.
Procedure: Following attachment to susceptible cells, rhinoviruses are endocytosed and disassembled or uncoated in order to release the viral RNA for subsequent gene expression and RNA replication. To determine if pleconaril affected the uncoating stage of the virus infection cycle, two types of experiments were carried out. In the first approach, an experiment was conducted to follow directly the fate of intact ^35S-radiolabeled (156S) virions attached to cells that were then allowed to proceed through virion disassembly (uncoating) in either the absence or presence of pleconaril. HRV3 virus was chosen for this experiment, as it is representative of the respective genera, and because binding of pleconaril was fully reversible with dilution, minimizing the possibility of drug carryover issues.
After virion attachment, either pleconaril (2 μM) or DMSO control solution was added to the cultures. After an additional 1 hour, the culture was shifted to 33° C., a temperature that permitted virus uncoating. After 2 hours, cell lysates were prepared and the amount of intact 156S virions was assessed by sedimentation of the lysates on continuous sucrose density gradients. […]

[1] = Pleconaril concentration in nasal mucus, clinical studies 843-043 and 843-044; conditions: diluted samples, individual subjects
Procedure: Two hundred (200) μl of acetonitrile was added to 200 μl of each nasal mucus standard and sample. The samples and standards were vortex mixed and then centrifuged at 25° C. for 10 minutes at 2500 rpm. 170 μl of supernatant was removed from each standard and sample. Then, 30 μl of water was added. The mixture was vortex mixed and 40 μl was injected for quantitative analysis of pleconaril.
Standards and samples were analyzed via LC/MS/MS. • Mass Spec: Micromass Quattro • LC: Alliance 2790 • Mobile Phase: 85% Acetonitrile/15% 2 mM Ammonium Acetate (0.2% formic acid) • Flow Rate: 0.5 ml/min • Analytical Column: Luna C18 (2) 5μ, 50×3.00 mm (Phenomenex) • Source: ESI (Electrospray Ionization) • Ion Mode: Positive • MRM transition: 382>82
The Masslyns quantitation package was used to analyze the results. The method used was a linear (1/× weighted) external standard method of calibration.
Studies 843-043 and 843-044 were Phase III clinical trials for the acute treatment of viral respiratory infection (common cold) in which pleconaril was administered for five days (400 mg TID). These samples were selected based on the plasma concentrations measured on Day 3 of 6 (plasma concentrations at or above 1 μg/ml).
Nasal mucus samples were diluted with 2 ml of transport media during processing and prior to quantitative analysis.

HRV serotype 96 = assay: HRV cytopathic effect assay; format: cell-based; conditions: Human rhinovirus sp.
HRV serotype 86 = assay: HRV cytopathic effect assay; format: cell-based; conditions: Human rhinovirus sp.
HRV serotype 92 = assay: HRV cytopathic effect assay; format: cell-based; conditions: Human rhinovirus sp.

Cc1cc(CCCOc2c(C)cc(-c3noc(C(F)(F)F)n3)cc2C)on1 [pleconaril, 3-[3,5-dimethyl-4-[3-(3-methyl-5-isoxazolyl)propoxy]phenyl]-5-(trifluoromethyl)-1,2,4-oxadiazole]
reduction in the amount of attached intact 156S virions (uncoating) (HRV3): minimal reduction | Pleconaril Concentration (Nasal Mucus) ([1]; Study 43, Day 3, 400 mg TID for five days): 26.36 ng/mL and 10.22 ng/mL and 2.46 ng/mL and 1.20 ng/mL | Pleconaril Concentration (Nasal Mucus) ([1]; Study 43, Day 6, 400 mg TID for five days): BQL and 2.21 ng/ml and 33.93 ng/ml and 79.38 ng/ml | Pleconaril Concentration (Nasal Mucus) ([1]; Study 44, Day 3, 400 mg TID for five days): BQL and 23.88 ng/ml and 2.51 ng/ml and 6.98 ng/ml | Pleconaril Concentration (Nasal Mucus) ([1]; Study 44, Day 6, 400 mg TID for five days): 1.77 ng/mL and 2.43 ng/mL | concentration at 6 day ([1]; human, nasal mucus, oral, 400 mg TID, Pleconaril Concentration (Nasal Mucus), Study 44, Day 6, 400 mg TID for five days): 1.68 ng/mL | IC50 (HRV serotype 96): 90 ± 50 nM | IC50 (HRV serotype 86): 130 ± 100 nM | IC50 (HRV serotype 92): 20 ± 10 nM
